Measured values reported in patent publication US20230381154A1, “TREATMENT OF BREAST CANCER USING COMBINATION THERAPIES COMPRISING GDC-9545 AND ABEMACICLIB OR RIBOCICLIB” (Genentech, Inc., priority 2021, published 2023).
Blank lines part the entries; values can stand above or below the compound they belong to.

Key:
xenograft models = test: xenograft models, efficacy; type: in vivo; conditions: fulvestrant dosed according to a clinically relevant dosing scheme
Description: (§1) Furthermore, the lower plasma protein binding of GDC-9545 provides higher free concentration of GDC-9545 than fulvestrant.

[1] = tested on: ER+ metastatic breast cancer; conditions: frontline patients, NCT01602380; cited from earlier work
[2] = human steady-state total drug exposure, GDC-9545 versus fulvestrant; type: in vivo; conditions: GDC-9545 30 mg QD versus fulvestrant 500 mg IM monthly
Description: as §1

[3] = plasma protein binding and free concentration, GDC-9545 versus fulvestrant; type: in vitro ADME
Description: as §1

ESR1-mutant = test: in vitro cell and biochemical assays, ESR1-mutant context
Description: as §1

wild-type ER = biological target: T1, wild-type ER (Homo sapiens, UniProt P03372); test: in vitro cell and biochemical assays, wild-type context
T1 sequence (P03372 1-595): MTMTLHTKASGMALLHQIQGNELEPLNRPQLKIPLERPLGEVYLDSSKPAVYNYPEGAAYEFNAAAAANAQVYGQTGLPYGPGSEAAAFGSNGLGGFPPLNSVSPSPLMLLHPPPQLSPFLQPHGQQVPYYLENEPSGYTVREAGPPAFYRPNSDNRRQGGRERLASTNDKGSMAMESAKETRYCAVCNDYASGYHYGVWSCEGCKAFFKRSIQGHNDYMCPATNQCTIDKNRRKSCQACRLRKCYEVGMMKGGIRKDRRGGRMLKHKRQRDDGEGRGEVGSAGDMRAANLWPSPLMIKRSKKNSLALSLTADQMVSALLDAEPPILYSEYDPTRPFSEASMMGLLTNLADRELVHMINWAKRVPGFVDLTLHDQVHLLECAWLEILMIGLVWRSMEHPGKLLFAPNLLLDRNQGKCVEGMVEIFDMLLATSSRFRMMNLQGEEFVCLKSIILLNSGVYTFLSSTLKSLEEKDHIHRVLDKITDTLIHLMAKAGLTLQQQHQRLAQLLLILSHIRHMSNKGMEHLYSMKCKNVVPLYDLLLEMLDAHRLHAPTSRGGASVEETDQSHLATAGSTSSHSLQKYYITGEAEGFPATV
Description: as §1

CDK4 = CDK4 (Homo sapiens, UniProt P11802); conditions: cited from earlier work
[4] = tested on: endocrine-resistant tumors; conditions: cited from earlier work

Sequence of CDK4 (P11802 whole entry): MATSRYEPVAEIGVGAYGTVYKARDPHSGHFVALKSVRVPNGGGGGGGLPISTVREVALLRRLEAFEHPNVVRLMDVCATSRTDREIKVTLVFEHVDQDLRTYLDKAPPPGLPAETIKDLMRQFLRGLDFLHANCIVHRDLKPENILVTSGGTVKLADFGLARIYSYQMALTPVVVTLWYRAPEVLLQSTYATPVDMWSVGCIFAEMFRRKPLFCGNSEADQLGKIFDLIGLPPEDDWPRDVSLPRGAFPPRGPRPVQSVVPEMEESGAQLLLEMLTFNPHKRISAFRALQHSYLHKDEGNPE
Sequence of CDK4 (P24385 whole entry partner): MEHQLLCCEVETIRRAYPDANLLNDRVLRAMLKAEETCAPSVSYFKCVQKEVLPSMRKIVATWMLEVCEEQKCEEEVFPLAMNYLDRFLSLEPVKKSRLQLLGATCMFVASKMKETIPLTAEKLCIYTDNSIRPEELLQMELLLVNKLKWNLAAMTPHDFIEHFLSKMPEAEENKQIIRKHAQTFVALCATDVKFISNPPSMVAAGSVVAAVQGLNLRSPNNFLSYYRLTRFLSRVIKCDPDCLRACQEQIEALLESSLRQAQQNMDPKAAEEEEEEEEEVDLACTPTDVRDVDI

Compound: C[C@]12CC[C@@H]3c4ccc(O)cc4C[C@@H](CCCCCCCCC[S+]([O-])CCCC(F)(F)C(F)(F)F)[C@H]3[C@@H]1CC[C@@H]2O (stereo partly drawn) [Fulvestrant]
efficacy in xenograft models compared with GDC-9545 (xenograft models): less efficacious
clinical benefit versus anastrozole [1]: benefit over anastrozole

steady-state total drug exposure relative to fulvestrant [2]: approximately 10 fold
free concentration compared with fulvestrant [3]: higher
plasma protein binding compared with fulvestrant [3]: lower
potency relative to fulvestrant (wild-type ER): up to 10 times
Compound: C[C@@H]1Cc2c([nH]c3ccccc23)[C@@H](c2c(F)cc(NC3CN(CCCF)C3)cc2F)N1CC(F)(F)CO [GDC-9545, 3-((1R,3R)-1-(2,6-difluoro-4-((1-(3-fluoropropyl)azetidin-3-yl)amino)phenyl)-3-methyl-1,3,4,9-tetrahydro-2H-pyrido[3,4-b]indol-2-yl)-2,2-difluoropropan-1-ol]
potency relative to fulvestrant (ESR1-mutant): up to 10 times

Compound: (2-Pyrimidinamine, N-[5-[(4-ethyl-1-piperazinyl)methyl]-2-pyridinyl]-5-fluoro-4-[4-fluoro-2-methyl-1-(1-methylethyl)-1H-benzimidazol-6-yl] [abemaciclib]
selectivity CDK4 versus CDK6 (CDK4): more selective for CDK4 than CDK6
single-agent activity [4]: single-agent activity
